Source: PubChem BioAssay AID1919016 (Molecular Pharmacology Branch, DTP, NCI, 2023)

System: NCI-H196 complex spheroid growth, percent test/control
Experiment: Anticancer human tumor NCI-H196 cell line growth inhibition [AhR];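 further: seven days of drug exposure starting three days after plating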;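 on viability, T/C: 100% = DMSO vehicle control wells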
Conditions: for IC50: curve of first compound; for viability, T/C: stronger effect = lower value
In short: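 Complex tumor spheroids co-cultured with HUVEC and human MSC stroma; AhR antagonists tested in combination with standard-of-care and investigational agents. Top concentration at or near clinical Cmax (else 10 microM), half-log dilutions; growth expressed as percent test/control.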

[1] = second compound 0.1 µM, first compound 0.000949 µM
[2] = second compound 0.1 µM, first compound 0.003 µM
[3] = second compound 0.1 µM, first compound 0.00949 µM
[4] = second compound 0.1 µM, first compound 0.03 µM
[5] = second compound 0.1 µM, first compound 0.0949 µM
[6] = second compound 0.1 µM, first compound 0.3 µM
[7] = second compound 0.316 µM, first compound 0.000949 µM
[8] = second compound 0.316 µM, first compound 0.003 µM
[9] = second compound 0.316 µM, first compound 0.00949 µM
[10] = second compound 0.316 µM, first compound 0.03 µM
[11] = second compound 0.316 µM, first compound 0.0949 µM
[12] = second compound 0.316 µM, first compound 0.3 µM
[13] = second compound 1 µM, first compound 0.000949 µM
[14] = second compound 1 µM, first compound 0.003 µM
[15] = second compound 1 µM, first compound 0.00949 µM
[16] = second compound 1 µM, first compound 0.03 µM
[17] = second compound 1 µM, first compound 0.0949 µM
[18] = second compound 1 µM, first compound 0.3 µM
[19] = second compound 3.16 µM, first compound 0.000949 µM
[20] = second compound 3.16 µM, first compound 0.003 µM
[21] = second compound 3.16 µM, first compound 0.00949 µM
[22] = second compound 3.16 µM, first compound 0.03 µM
[23] = second compound 3.16 µM, first compound 0.0949 µM
[24] = second compound 3.16 µM, first compound 0.3 µM
[25] = second compound 10 µM, first compound 0.000949 µM
[26] = second compound 10 µM, first compound 0.003 µM
[27] = second compound 10 µM, first compound 0.00949 µM
[28] = second compound 10 µM, first compound 0.03 µM
[29] = second compound 10 µM, first compound 0.0949 µM
[30] = second compound 10 µM, first compound 0.3 µM

CC(C)CC(NC(=O)C(Cc1ccccc1)NC(=O)c1cnccn1)B(O)O (stereo not given) + Cc1cncc(-c2nc(NCCc3c[nH]c4ccccc34)c3ncn(C(C)C)c3n2)c1
IC50 (second compound 0.1 µM): 0.00765 µM | IC50 (second compound 0.316 µM): 0.00851 µM | IC50 (second compound 1 µM): 0.00735 µM | IC50 (second compound 3.16 µM): 0.0099 µM | IC50 (second compound 10 µM): 0.00554 µM | viability, T/C [1]: 98.2% | viability, T/C [2]: 109% | viability, T/C [3]: 37.6% | viability, T/C [4]: 1.78% | viability, T/C [5]: 1.16% | viability, T/C [6]: 1.38% | viability, T/C [7]: 95.2% | viability, T/C [8]: 99.1% | viability, T/C [9]: 45% | viability, T/C [10]: 1.25% | viability, T/C [11]: 2.43% | viability, T/C [12]: 1.51% | viability, T/C [13]: 102% | viability, T/C [14]: 98.7% | viability, T/C [15]: 36.1% | viability, T/C [16]: 1.32% | viability, T/C [17]: 1.62% | viability, T/C [18]: 0.94% | viability, T/C [19]: 105% | viability, T/C [20]: 103% | viability, T/C [21]: 51.9% | viability, T/C [22]: 0.84% | viability, T/C [23]: 0.89% | viability, T/C [24]: 2.1% | viability, T/C [25]: 83.2% | viability, T/C [26]: 95% | viability, T/C [27]: 15.8% | viability, T/C [28]: 0.72% | viability, T/C [29]: 0.96% | viability, T/C [30]: 1.09%

CCc1c2c(nc3ccc(O)cc13)-c1cc3c(c(=O)n1C2)COC(=O)[C@]3(O)CC + Cc1cncc(-c2nc(NCCc3c[nH]c4ccccc34)c3ncn(C(C)C)c3n2)c1
IC50 (second compound 0.1 µM): > 0.3 µM | IC50 (second compound 0.316 µM): > 0.3 µM | IC50 (second compound 1 µM): > 0.3 µM | IC50 (second compound 3.16 µM): > 0.3 µM | IC50 (second compound 10 µM): 0.104 µM | viability, T/C [1]: 99.9% | viability, T/C [2]: 102% | viability, T/C [3]: 104% | viability, T/C [4]: 102% | viability, T/C [5]: 87.6% | viability, T/C [6]: 78.5% | viability, T/C [7]: 91.3% | viability, T/C [8]: 91.9% | viability, T/C [9]: 96% | viability, T/C [10]: 100% | viability, T/C [11]: 77.2% | viability, T/C [12]: 74.2% | viability, T/C [13]: 99.3% | viability, T/C [14]: 109% | viability, T/C [15]: 116% | viability, T/C [16]: 102% | viability, T/C [17]: 96.9% | viability, T/C [18]: 57.8% | viability, T/C [19]: 96.9% | viability, T/C [20]: 102% | viability, T/C [21]: 92.4% | viability, T/C [22]: 85.6% | viability, T/C [23]: 86.7% | viability, T/C [24]: 52.5% | viability, T/C [25]: 82.9% | viability, T/C [26]: 88.5% | viability, T/C [27]: 90% | viability, T/C [28]: 65.5% | viability, T/C [29]: 54.6% | viability, T/C [30]: 30.5%

COc1cc(Nc2ncc3c(n2)-c2ccc(Cl)cc2C(c2c(F)cccc2OC)=NC3)ccc1C(=O)O + Cc1cncc(-c2nc(NCCc3c[nH]c4ccccc34)c3ncn(C(C)C)c3n2)c1
IC50 (second compound 0.1 µM): > 10 µM | IC50 (second compound 0.316 µM): > 10 µM | IC50 (second compound 1 µM): > 10 µM | IC50 (second compound 3.16 µM): > 10 µM | IC50 (second compound 10 µM): > 10 µM | viability, T/C (second compound 0.1 µM, first compound 0.0316 µM): 96% | viability, T/C (second compound 0.1 µM, first compound 0.1 µM): 99.5% | viability, T/C (second compound 0.1 µM, first compound 0.316 µM): 98.4% | viability, T/C (second compound 0.1 µM, first compound 1 µM): 103% | viability, T/C (second compound 0.1 µM, first compound 3.16 µM): 118% | viability, T/C (second compound 0.1 µM, first compound 10 µM): 153% | viability, T/C (second compound 0.316 µM, first compound 0.0316 µM): 98.7% | viability, T/C (second compound 0.316 µM, first compound 0.1 µM): 94.3% | viability, T/C (second compound 0.316 µM, first compound 0.316 µM): 109% | viability, T/C (second compound 0.316 µM, first compound 1 µM): 111% | viability, T/C (second compound 0.316 µM, first compound 3.16 µM): 131% | viability, T/C (second compound 0.316 µM, first compound 10 µM): 129% | viability, T/C (second compound 1 µM, first compound 0.0316 µM): 94.1% | viability, T/C (second compound 1 µM, first compound 0.1 µM): 102% | viability, T/C (second compound 1 µM, first compound 0.316 µM): 120% | viability, T/C (second compound 1 µM, first compound 1 µM): 114% | viability, T/C (second compound 1 µM, first compound 3.16 µM): 104% | viability, T/C (second compound 1 µM, first compound 10 µM): 148% | viability, T/C (second compound 3.16 µM, first compound 0.0316 µM): 101% | viability, T/C (second compound 3.16 µM, first compound 0.1 µM): 104% | viability, T/C (second compound 3.16 µM, first compound 0.316 µM): 127% | viability, T/C (second compound 3.16 µM, first compound 1 µM): 115% | viability, T/C (second compound 3.16 µM, first compound 3.16 µM): 118% | viability, T/C (second compound 3.16 µM, first compound 10 µM): 145% | viability, T/C (second compound 10 µM, first compound 0.0316 µM): 83.1% | viability, T/C (second compound 10 µM, first compound 0.1 µM): 91.8% | viability, T/C (second compound 10 µM, first compound 0.316 µM): 106% | viability, T/C (second compound 10 µM, first compound 1 µM): 97.7% | viability, T/C (second compound 10 µM, first compound 3.16 µM): 104% | viability, T/C (second compound 10 µM, first compound 10 µM): 143%
